Entries after “also recorded” stand apart in the source; their conditions may differ.
Assays:
[1] = test system: Cdk6; assay: in vitro kinase assay of Cdk6 immunoprecipitated from treated TSU-Pr1 cells; assay type: cell-based, human; conditions: 3.33 μM, TSU-Pr1, as early as 3 hours in drug
Method: (§1) TSU-Pr1 cells were treated for 24 hours with either DMSO or 3.33 μM dysidiolide. Cells were pulse-labeled for 30 min with bromodeoxyuridine (BrdU) and analyzed by FACS. The R@ window contains BRDU-positive, S-phase cells. Consistent with the proposed inhibitory effect of dysidiolide on the positive cell cycle regulator Cdc25. the drug inhibited the activity of cyclin-dependent kinases (Cdk). Cdk4, 6 and 2 were immunoprecipitated from DMSO- or drug-treated TSU-Pr1 cell cultures. Activity was examined in vitro kinase assays. The activity of the three Cdks was inhibited in drug-treated cells, as early as 3 hours in drug.
(§2) In vitro kinase assays of Cdk. TSU-Pr1 cells were treated with 3.33 μM dysidiolide for 0-24 hours. Samples were collected at various times and the activity of Cdk4, 6 and 2 was determined. Cdks were immunoprecipitated with specific antibodies and incubated with radiolabeled ATP plus either histH1 (for Cdk2) or GST-Rb (for Cdk4 and 6). Reactions were separated on SDS-polyacrylamide gels and the amount of phosphorylated product was determined by radiometric analysis.

[2] = test system: TSU-Pr1 cells; assay: BrdU pulse-label FACS of TSU-Pr1 cells; assay type: cell-based, human; conditions: 3.33 μM, 24 hours
Method: as §1

[3] = test system: MX1 tumor xenografts; assay: MX1 tumor xenografts in nude mice; assay type: in vivo; conditions: Sixty three mg/kg
Method: Dysidiolide inhibited the growth of MX1 tumor xenografts in nude mice. Sixty three mg/kg dysidiolide inhibited (A) tumor growth by 70% while (B) animal weight (and indication of overall toxicity) remained higher than 90% of controls.
Therapeutic Effects of Dysidiolide and Taxol in Nude Mice bearing MX-1. MX-1 cell 50 μg was implanted s.c. on day 0. Every other day i.v. treatments were given on day 3,5,7,9 and 11. The average tumor volume of control group on day 3, 7, 9, 11 and 13 were 62, 75, 113, 155 and 264 mm^3, respectively. Solvents: Dysidiolide [20-40 μl DMSO+100 μl (Cremophor: EtOH=1:1)+Saline] Taxol [Clinical use (Cremophor+EtOH=1:1)+Saline].

[4] = test system: TSU-Pr1, PC3 and DU145 human prostrate cancer cells; assay: apoptosis by FACS detection of fragmented DNA; assay type: cell-based; conditions: 24 hours
Method: Cells containing fragmented DNA content were detected as the M1 (subG1) region on DNA content plots.
Effects of dysidiolide at the cellular level. Dysidiolide was cytotoxic to several human tumor cell lines. […] (A) Human tumor cells were treated for 24 hours in the presence of various concentrations of dysidiolide or DMSO vehicle. Cells were analyzed by FACS and the percentage of cells bearing less than the 2 n DNA complement was determined. (B) Immunofluorescence micrographs of TSU-Pr1 human prostrate cancer cells untreated or treated for 6 hours with 2-50 μM dysidiolide.

[5] = test system: Cdk2; assay: in vitro kinase assay of Cdk2 immunoprecipitated from treated TSU-Pr1 cells; assay type: cell-based, human; conditions: 3.33 μM, TSU-Pr1, as early as 3 hours in drug
Method: as §1, §2

[6] = test system: Cdk4; assay: Cdk4 kinase activity on immunoprecipitates from treated MCF7 cells; assay type: cell-based, human; conditions: 50 μM, 24 hr
Method: (§3) Effect of a 24 hr treatment with 50 μM dysidiolide on the kinase activity of Cdk4, Cdk2 and Cdc2. Cdk were immunoprecipitated from MCF7 cell lysates obtained from cultures treated or not with dysidiolide for 24 hr. Histone H1 was used as substrate for Cdk2 and Cdc2, whereas GST-Rb was the substrate for Cdk4.
(§4) To further characterize the effects of dysidiolide on cell cycle control, experiments were conducted at the molecular level. As Cdc25s (A, B and C) are positive regulators of cyclin-dependent kinases (Cdk) (reviewed in Draetta and Eckstein, BBA 1332: M53-M63, 1997) inhibition of Cdc25 is expected to result in inhibition of Cdk activity. MCF7 cells were treated with 2 or 10 μM dysidiolide or with DMSO (controls) for 2 or 4 hr. Cell extracts were used to measure the steady-state levels of Cdc25 A and C, and Cdk activity. […] However, a decrease in the levels of Cdc25 C (but not on A) was clearly noticeable (FIG. 9B). In the next experiment MCF7 cells were treated for 24 hr with 50 μM dysidiolide or with DMSO (control) for 24 hr. […] On the other hand, at these more stringent conditions, inhibition of Cdk2, Cdk4 and Cdc2 protein kinase activities was observed (FIG. 10A and FIG. 10B).

[7] = test system: lung carcinoma and murine leukemia cell lines; conditions: cited from earlier work
[8] = test system: Cdk4; assay: in vitro kinase assay of Cdk4 immunoprecipitated from treated TSU-Pr1 cells; assay type: cell-based, human; conditions: 3.33 μM, TSU-Pr1, as early as 3 hours in drug
Method: as §1, §2

[9] = test system: p21, p27, cyclin D1 and cyclin E; assay: steady-state levels of other cell cycle regulators in MCF7 cells; assay type: cell-based, human; conditions: 50 μM, 24 hr
Method: (§5) (A) Effect of 50 μM dysidiolide on the steady-state levels of Cdc25 A and C, and of other cell cycle regulators in MCF7 cells after a 24 hr treatment.

[10] = test system: Cdc2; assay: Cdc2 kinase activity on immunoprecipitates from treated MCF7 cells; assay type: cell-based, human; conditions: 50 μM, 24 hr
Method: as §3, §4

[11] = test system: human tumor cell lines; assay: anchorage-dependent growth of human tumor cell lines; assay type: cell-based
Method: (B) Effect of dysidiolide on anchorage-dependent growth of human tumor cell lines. Cells were grown in multiwell plates and treated with either various drug concentrations or with dimethylsulfoxide (vehicle control). Cell number was determined and the inhibitory concentration to induce 50% growth inhibition (IC50) was determined. (C) Furthermore, dysidiolide inhibited the growth of immortalized human mammary epithelial cells transformed by either the oncogene ras, the receptor tyrosine kinase Neu, or both agents. Again, the IC50 for growth inhibition was in the low μM range (IC50 −3 μM dysidiolide).
In summary, the synthetic dysidiolide is an active drug in human tumor cell lines. It induces cytotoxicity, as detected by loss of Trypan blue exclusion and by the appearance of cells containing fragmented DNA via FACS analysis. […] Dysidiolide has the potential to be a cell cycle-targeted drug, which could be used alone or in combination with other treatments. In this regard, it may sensitize cells for DNA damaging treatments (i.e. act as a radiosensitizer). […] Cell lines derived from tumors of diverse origins were affected similarly.

[12] = test system: Cdc25 C; assay: steady-state levels of Cdc25 C in MCF7 cell lysates; assay type: cell-based, human
Method: Effect of dysidiolide on the activity of Cdk2 and on the steady-state levels of Cdc25A and Cdc25C. MCF7 cells were treated for 2 or 4 hr with 0, 2 or 10 μM dysidiolide. A) The kinase activity of Cdk2 was assayed on immunoprecipitates using histone H1 as exogenous substrate. B) The steady-state levels of Cdc25 A and C were analyzed in total cell lysates with specific antibodies (Santa Cruz Biotechnology's sc097 and sc327 antibodies were used for detection of Cdc25 A and C, respectively).
as §5
To further characterize the effects of dysidiolide on cell cycle control, experiments were conducted at the molecular level. As Cdc25s (A, B and C) are positive regulators of cyclin-dependent kinases (Cdk) (reviewed in Draetta and Eckstein, BBA 1332: M53-M63, 1997) inhibition of Cdc25 is expected to result in inhibition of Cdk activity. MCF7 cells were treated with 2 or 10 μM dysidiolide or with DMSO (controls) for 2 or 4 hr. Cell extracts were used to measure the steady-state levels of Cdc25 A and C, and Cdk activity. […] However, a decrease in the levels of Cdc25 C (but not on A) was clearly noticeable (FIG. 9B). In the next experiment MCF7 cells were treated for 24 hr with 50 μM dysidiolide or with DMSO (control) for 24 hr. […]

## C=C(C)CCC[C@@]1(C)CCC[C@H]2C1=CC[C@H](C)[C@]2(C)C[C@H](O)C1=CC(=O)O[C@@H]1O (racemic) [dysidiolide]
[1]
  Cdk6 activity: inhibited
[2]
  cell cycle arrest: induces G1 arrest
[3]
  animal weight (indication of overall toxicity): higher than 90 % of controls
  tumor growth inhibition: 70%
[4]
  apoptosis: massive apoptosis; also recorded: induced apoptotic cell death
[5]
  Cdk2 activity: inhibited
[6]
  Cdk4 protein kinase activity: inhibition
[7]
  growth of lung carcinoma and murine leukemia cell lines: inhibits growth
[8]
  Cdk4 activity: inhibited
[9]
  levels of p21, p27, cyclin D1 and cyclin E: reduced levels
[10]
  Cdc2 protein kinase activity: inhibition
[11]; MCF7 vs. MCF/Adr and CEM vs. CEM/VBL100
  cross-resistance with vinblastine or doxorubicin (MDR phenotype): no cross-resistance
[11]; a number of human tumor cancer lines, read-out: IC50 for growth inhibition of human tumor cancer lines
  IC50: 500 to 4500 nM
[12]; 50 μM, 24 hr
  levels of Cdc25 C: reduced
[12]; 2 or 10 μM, 2 or 4 hr
  levels of Cdc25 C: decrease
